Data on two compounds can be found in patent US11103460B2 (priority 2017, dated 2021).

The conditions of series [1]: human, in vivo, iv; cited from earlier work.

SMILES strings stand for the structures.

Regarding `Nc1nc(O)c2ncn(COC(CO)CO)c2n1` [Ganciclovir], the “patients experiencing bone marrow toxicity resulting in neutropenia” value in series [1] is reported as 30-50%.
Consider `O=C([O-])c1ccccc1-c1c2ccc(=O)cc-2oc2cc([O-])ccc12.[Na+].[Na+]` [sodium fluorescein, Sodium fluorescein], for which the “in vivo release behaviour (fluorescence in urine)” value is recorded as “long-term constant release”.
